Results: patent publication US20050209278A1, “Piperidinyl- and piperazinyl-sulfonylmethyl hydroxamic acids and their use as protease inhibitors” (priority 2002, published 2005)
pKi: −log10 of the molar value. Structures can show the parent of a compound that is named as a salt. Where two headings read alike, the source gives them in different places.

Tests used:
MMP-14 = target: T1, MMP-14 (Homo sapiens, UniProt P50281); test: In vitro MMP inhibition, Ki determination (fluorogenic substrate II); format: biochemical
T1 construct: The catalytic domain enzyme was expressed in E. coli inclusion bodies, solubilized in urea; made in house
Experimental: (§1) Several hydroxamic acids and salts thereof were analyzed in in vitro assays to determine their ability to inhibit the MMP cleavage of peptide substrates. […] and IC50 constants were calculated from the assayed hydroxamic acid-MMP interactions.
(§2) Human recombinant MMP-1, MMP-2, MMP-9, MMP-13, and MMP-14 were used in this assay. All enzymes were prepared in Assignee's laboratories following usual laboratory procedures. Protocols for the preparation and use of these enzymes are available in the scientific literature. See, e.g., Enzyme Nomenclature (Academic Press, San Diego, Calif., 1992) (and the citations therein). See also, Freije et al., “Molecular cloning and expression of collagenase-3, a novel human matrix metalloproteinase produced by breast carcinomas,” J Biol. Chem., 269(24), 16766-16773 (1994).
The MMP-14 full length cDNA was provided by Dr. Gregory Goldberg of Washington University (St. Louis, Mo.). The catalytic domain enzyme was expressed in E. coli inclusion bodies, solubilized in urea, purified on a preparative […] reverse phase HPLC column, and then refolded in the presence of zinc acetate and purified for use.
(§3) All MMPs were activated using 4-aminophenylmercuric acetate (“APMA”, Sigma Chemical, St. Louis, Mo.) or trypsin. MMP-9 also was activated using human recombinant MMP-3 (purified in Assignee's laboratory following standard cloning and purification techniques).
(§4) Two fluorogenic, methoxycoumarin-containing polypeptide substrates were used in the MMP inhibition assays: [drawing 427] Here, “Dpa” is 3-(2,4-dinitrophenyl)-L-2,3-diaminopropionyl group, and “MCA” is 7-methoxycoumarin-4-yl acetyl. Substrate (I) was purchased from Baychem (Redwood City, Calif.), and substrate II was prepared Assignee's laboratory. Substrate I was used in the IC50 determination assays, while substrate II was used in the Ki determination assays. In the absence of MMP inhibitory activity, either substrate is cleaved at the Gly-Leu peptide bond. This cleavage separates the highly fluorogenic peptide from the 2,4-dinitrophenyl quencher, thus resulting in increase of fluorescent intensity.
(§5) The stock solutions of the assayed hydroxamic acids (or salts thereof) were prepared in 1% dimethyl sulfoxide (DMSO). These stock solutions were diluted in Buffer A (100 mM Tris-HCl, 100 mM NaCl, 10 mM CaCl2, 0.05% polyoxyethylene 23 lauryl ether, pH 7.5) to obtain solutions with different hydroxamic acid concentrations, i.e., assay solutions with different concentrations of the assayed MMP inhibitory compound. The experiment controls contained the same amount of Buffer A/DMSO as the assayed sample, but contained no hydroxamic acid (or salt thereof).
(§6) The assays from which the Ki determinations were made were performed as follows. The assayed hydroxamic acid samples were incubated in separate wells of untreated white polystyrene plates (Nunc Nalgene International, Rochester, N.Y.), and analyzed on a Tecan SpectraFlour Plus plate reader. The excitation wavelength was 330 nm, and the emission wavelength—420 nm. All samples (assayed hydroxamic acids and controls) were incubated in separate plate wells at room temperature for 1 hr in the presence of 4 μM of MMP substrate (II). In the absence of MMP inhibitory activity, substrate II was cleaved at the Gly-Leu bond resulting in an increase of relative fluorescence. Inhibition was observed as a reduced rate of this increase in relative fluorescence. The various hydroxamic acids were analyzed using a single low enzyme concentration with a single substrate concentration fixed at or below the Km. This protocol is a modification of method by Knight et al., FEBS Lett., 296(3), 263-266 (1992). Apparent inhibitory constants were determined by non-linear regression of reaction velocity as a function of inhibitor and enzyme concentration using Morrison's equation, as described by Kuzmic, Anal. Biochem. 286, 45-50 (2000).

MMP-1 = target: T2, MMP-1 (Homo sapiens, UniProt P03956); test: as above; format: biochemical
T2 construct: made in house; host or cells: MMP-1-transfected HT-1080 cells (spent media)
T2 sequence (P03956 100-469): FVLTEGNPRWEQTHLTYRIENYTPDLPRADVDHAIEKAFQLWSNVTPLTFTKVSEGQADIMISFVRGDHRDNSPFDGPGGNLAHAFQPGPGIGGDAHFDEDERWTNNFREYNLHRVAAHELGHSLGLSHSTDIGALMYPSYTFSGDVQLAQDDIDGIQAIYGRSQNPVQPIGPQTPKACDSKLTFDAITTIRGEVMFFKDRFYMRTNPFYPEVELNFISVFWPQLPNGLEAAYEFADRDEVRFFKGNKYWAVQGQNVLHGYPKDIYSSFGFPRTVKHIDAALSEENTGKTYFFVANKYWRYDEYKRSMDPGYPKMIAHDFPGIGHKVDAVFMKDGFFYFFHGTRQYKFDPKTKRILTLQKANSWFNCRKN
Experimental: as §1, §2
The MMP-1 proenzyme was purified from the spent media of MMP-1-transfected HT-1080 cells provided by Dr. Harold Welgus of Washington University (St. Louis, Mo.). The protein was purified on a zinc chelating column.
as §3, §4, §5
as §6, with “(2000). […] Since the substrate concentration was chosen to be at or below the Km, the apparent Ki's from this analysis were reported as Ki's without correction for the influence of substrate.” for “(2000).”

[1] = value not in parenthesis, read-out: MMP-14 Ki
[2] = value not in parenthesis, read-out: MMP-1 Ki
[3] = human recombinant enzyme (catalytic domain), 4 μM substrate II, room temperature, 1 hr, read-out: MMP-14 Ki
[4] = human recombinant enzyme, 4 μM substrate II, room temperature, 1 hr, read-out: MMP-1 Ki

Compound | pKi (MMP-14; [1]) | pKi (MMP-1; [2]) | other results
O=C(NO)C1(S(=O)(=O)N2CCN(c3ccc(OCCCC(F)(F)F)cc3)CC2)CCN(C2CC2)CC1 [Example 153] | 5.17 | < 5.00 | 
CCCCCc1ccc(N2CCN(S(=O)(=O)C3(C(=O)NO)CCN(C(=O)C(F)(F)F)CC3)CC2)cc1 [Example 21, N-hydroxy-4-{[4-(4-pentylphenyl)piperazin-1-yl]sulfonyl}-1-(trifluoroacetyl)piperidine-4-carboxamide Hydrochloride] |  |  | pKi (MMP-14; [3]): 5.16; pKi (MMP-1; [4]): < 5.00
O=C(NO)C1(S(=O)(=O)N2CCN(c3ncccn3)CC2)CCOCC1 [Example 106] | 5.12 | 5.83 | 
CCCCOc1ccc(N2CCN(S(=O)(=O)C3(C(=O)NO)CCN(c4ncc(CC)cn4)CC3)CC2)cc1 [Example 155] | 5.27 | < 5.00 | 
O=C(NO)C1(S(=O)(=O)N2CCN(c3ccc(-c4ccc(Cl)cc4)cn3)CC2)CCOCC1 [Example 60] | 6.48 | 6.26 | 
O=C1c2ccccc2C(=O)N1CCCCc1ccc(N2CCN(S(=O)(=O)C3(C(=O)NO)CCOCC3)CC2)nc1 [Example 132] | 6.80 | 7.18 | 
CCCCCCCCCc1cnc(N2CCN(S(=O)(=O)C3(C(=O)NO)CCOCC3)CC2)nc1 [Example 110] | < 5.00 | < 5.00 | 
CCCCCCCCCc1cnc(N2CCN(S(=O)(=O)C3(C(=O)NO)CCOCC3)CC2)nc1 [Example 111] | < 5.00 | < 5.00 | 
CCCCc1ccc(C2CCN(S(=O)(=O)C3(C(=O)NO)CCN(C4CC4)CC3)CC2)nc1 [Example 24, 4-{[4-(5-butylpyridin-2-yl)piperidin-1-yl]sulfonyl}-1-cyclopropyl-N-hydroxypiperidine-4-carboxamide Hydrochloride] |  |  | pKi (MMP-14; [3]): 5.54; pKi (MMP-1; [4]): < 5.00
O=C(NO)C1(S(=O)(=O)N2CCN(c3ccc(OCC4CC4)c(F)c3)CC2)CCN(C2CC2)CC1 [Example 10, 1-cyclopropyl-4-[[4-[4-(cyclopropylmethoxy)-3-fluorophenyl]-1-piperazinyl]sulfonyl]-N-hydroxy-4-piperidinecarboxamide, dihydrochloride] |  |  | pKi (MMP-14; [3]): 5.36; pKi (MMP-1; [4]): < 5.00
COCCN1CCC(C(=O)NO)(S(=O)(=O)N2CCN(c3ccc(OCCC(C)C)cc3)CC2)CC1 [Example 148] | 5.16 | < 5.00 | 
CCCCOc1ccc(N2CCN(S(=O)(=O)C3(C(=O)NO)CCN(c4ccc(O)cc4)CC3)CC2)cc1 [Example 121] | < 5.00 | < 5.00 | 
O=C(c1cccnc1)N1CCC(C(=O)NO)(S(=O)(=O)N2CCN(c3ccc(OCCCC(F)(F)F)cc3)CC2)CC1 [Example 122] | 5.51 | < 5.00 | 
CCCCc1ccc(C2CCN(S(=O)(=O)C3(C(=O)NO)CCOCC3)CC2)s1 [Example 19, 4-{[4-(5-butylthien-2-yl)piperidin-1-yl]sulfonyl}-N-hydroxytetrahydro-2H-pyran-4-carboxamide] |  |  | pKi (MMP-14; [3]): 5.66; pKi (MMP-1; [4]): < 5.00
O=C(NO)C1(S(=O)(=O)N2CCC(c3ccc(OCC(F)(F)F)cc3)CC2)CCN(C2CC2)CC1 [Example 25, 1-cyclopropyl-N-hydroxy-4-({4-[4-(2,2,2-trifluoroethoxy)phenyl]piperidin-1-yl}sulfonyl)piperidine-4-carboxamide Hydrochloride] |  |  | pKi (MMP-14; [3]): 5.27; pKi (MMP-1; [4]): < 5.00
COCCOc1ccc(N2CCN(S(=O)(=O)C3(C(=O)NO)CCOCC3)CC2)cc1 [Example 14, N-hydroxy-4-({4-[4-(2-methoxyethoxy)phenyl]piperazin-1-yl}sulfonyl)tetrahydro-2H-pyran-4-carboxamide Hydrochloride] |  |  | pKi (MMP-14; [3]): 5.04; pKi (MMP-1; [4]): < 5.00
O=C(NO)C1(S(=O)(=O)N2CCN(c3ccc(COCC(F)(F)C(F)(F)C(F)(F)F)cc3)CC2)CCOCC1 [Example 69] |  |  | pKi (MMP-14; MMP-14 Ki, value not in parenthesis): < 5.00; pKi (MMP-1; MMP-1 Ki, value not in parenthesis): < 5.00
O=C(NO)C1(S(=O)(=O)N2CCN(c3ccc(-c4ccccc4)c(F)c3)CC2)CCOCC1 [Example 12, 4-{[4-(2-fluoro-1,1′-biphenyl-4-yl)piperazin-1-yl]sulfonyl}-N-hydroxytetrahydro-2H-pyran-4-carboxamide Hydrochloride] |  |  | pKi (MMP-14; [3]): 5.77; pKi (MMP-1; [4]): < 5.00
CC(C)CCOc1ccc(N2CCN(S(=O)(=O)C3(C(=O)NO)CCN(C4CC4)CC3)CC2)cc1 [Example 128] | 5.27 | < 5.00 | 
CCCCOc1ccc(N2CCN(S(=O)(=O)C3(C(=O)NO)CCN(c4cnccn4)CC3)CC2)cc1 [Example 140] | 6.02 | < 5.00 | 
CC(C)CCc1ccc(N2CCN(S(=O)(=O)C3(C(=O)NO)CCOCC3)CC2)nc1 [Example 133] | 5.67 | < 5.00 | 
CCCCOc1ccc(N2CCN(S(=O)(=O)C3(C(=O)NO)CCN(c4cc(C)ccn4)CC3)CC2)cc1 [Example 139] | 5.90 | 5.14 | 
O=C(NO)C1(S(=O)(=O)N2CCN(c3ccc(OC(F)(F)C(F)F)cc3)CC2)CCOCC1 [Example 4, 4-({4-[4-(1,1,2,2-tetrafluoroethoxy)phenyl]piperazinyl}sulfonyl)perhydro-2H-pyran-4-carbohydroxamic Acid] |  |  | pKi (MMP-14; [3]): 6.02; pKi (MMP-1; [4]): 5.83
CCCCOc1ccc(N2CCN(S(=O)(=O)C3(C(=O)NO)CCN(c4ccc(C)nc4)CC3)CC2)cc1 [Example 131] | 5.44 | < 5.00 | 
CCCCOc1ccc(N2CCN(S(=O)(=O)C3(C(=O)NO)CCOCC3)CC2)cc1 [Example 145] | 5.63 | < 5.00 | 
CCCCOc1ccc(N2CCN(S(=O)(=O)C3(C(=O)NO)CCN(C(=O)c4cc5ccccc5o4)CC3)CC2)cc1 [Example 127] | < 5.00 | < 5.00 | 
CCCCOc1ccc(N2CCN(S(=O)(=O)C3(C(=O)NO)CCN(C(=O)NCCOC)CC3)CC2)cc1 [Example 118] | 5.59 | < 5.00 | 
